The structures appear in SMILES notation.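 Dose response: 5 concentrations. Exposure: 48 h. Format: 96-well plates. Endpoint: linear interpolation; highest concentration if not reached. GI50: concentration for 50% inhibition of growth.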 Calls of active or inactive are those of the source. Rule as the data show it: active = GI50 up to about 1.1 µM and inactive = higher. A value given as a limit tells only on which side of the number the result lay.

What all share (experiment): NCI anticancer screen, dose series, 48 h
In assay [1] the test system is A498.
The subject of assay [2] is HCT-15.
The test system of assay [3] is Hs-578T.
Assay [4] deals with IGROV-1.
For assay [5], the system named is LOX IMVI.
The subject of assay [6] is M14.
Assay [7] has as its system MCF7.
In assay [8] the test system is MDA-MB-231.
For assay [9], the system named is MDA-N.
Assay [10] relates to MOLT-4.
Assay [11] concerns OVCAR-3.
The test system of assay [12] is OVCAR-5.
Assay [13] relates to RPMI-8226.
Assay [14] concerns SF-295.
Assay [15] has as its system SK-MEL-28.
Assay [16] deals with SN12C.
The subject of assay [17] is SR.
For assay [18], the system named is TK-10.
The subject of assay [19] is UACC-257.
For assay [20], the system named is SK-OV-3.

`CC(=O)OC1C[C@@H](C)C2(CC(c3ccoc3)OC2=O)C2CCC(O)C3(CO3)C12CO` (stereo partly specified): the GI50 in assay [1] was > 100 µM (inactive); in [2], greater than 100 µM; in assay [3] it was > 100 µM (inactive); in assay [4], > 100 µM (inactive); in [5], > 100 µM (inactive); in assay [6], > 100 µM (inactive). Further, the GI50 in assay [7], in assay [8], in assay [9], in [10], in [11] and in assay [12] was > 100 µM (inactive) throughout. Also, the GI50 in assay [13], in assay [14], in assay [15], in [16], in [17] and in [18] was > 100 µM (inactive) in each case. Besides, in assay [19], the GI50 was > 100 µM (inactive).
Consider `CC(C)(C)OC(=O)NC(Cc1ccc(OCc2ccccc2)cn1)C(=O)N1CCCC1` (stereo unspecified), for which the GI50 is > 100 µM (inactive) in assay [1]; 74.3 µM in [2]; > 100 µM (inactive) in [3]; > 100 µM (inactive) in [4]; 72.1 µM (inactive) in assay [5]; > 100 µM (inactive) in assay [6]. Moreover, the GI50 in assay [7] was 62.1 µM (inactive); in assay [8] it was 80 µM (inactive); in [9], 55.8 µM (inactive); in assay [10], 34.8 µM (inactive); in assay [11] it was 25.6 µM (inactive); in assay [12] it was > 100 µM (inactive). Moreover, the GI50 is 54.6 µM (inactive) in assay [13]; 30.1 µM (inactive) in [14]; > 100 µM (inactive) in assay [15]; 77.6 µM (inactive) in assay [16]; > 100 µM (inactive) in [17]; > 100 µM (inactive) in [18]. The GI50 in [19] was 37.4 µM (inactive).
As for `OCC1OC(n2cnc3cccnc32)CC1O` (stereo unspecified), the GI50 in assay [1] is > 100 µM (inactive); in assay [2] it was greater than 100 µM; in [3], > 100 µM (inactive); in [4], > 100 µM (inactive); in assay [5], > 100 µM (inactive); in assay [6], > 100 µM (inactive). The GI50 in [7], in assay [8], in assay [9], in assay [10], in [11] and in assay [12] was > 100 µM (inactive) throughout. The GI50 in [14], in assay [15], in assay [16], in assay [17], in assay [18] and in [19] was > 100 µM (inactive) throughout.
Consider `c1ccc(C(Oc2noc3ccccc23)c2ccccc2)cc1`, for which the GI50 in assay [1] is 39 µM (inactive); in [2], 31.3 µM; in assay [3], 66.4 µM (inactive); in [4], 49.9 µM (inactive); in assay [5], 38.7 µM (inactive); in [6], 25.2 µM (inactive). The GI50 was 37.3 µM (inactive) in assay [7]; 36.2 µM (inactive) in assay [8]; 19.9 µM (inactive) in assay [9]; 14.8 µM (inactive) in assay [10]; 35.2 µM (inactive) in assay [11]; 51.4 µM (inactive) in assay [12]. The GI50 in assay [14] is 33 µM (inactive); in assay [15], 65.5 µM (inactive); in assay [20], 57 µM (inactive); in assay [16], 35.7 µM (inactive); in [17] it was 13.2 µM (inactive); in assay [18], 47.6 µM (inactive). The GI50 in assay [19] was 29.5 µM (inactive).
For the compound `N/N=C1/C(=N/O)CCc2nonc21`, the GI50 is greater than 100 µM in assay [2]; > 100 µM (inactive) in assay [3]; > 100 µM (inactive) in [4]; > 100 µM (inactive) in assay [5]; > 100 µM (inactive) in assay [6]; > 100 µM (inactive) in [7]. Moreover, the GI50 in assay [8], in assay [9], in [10], in assay [11], in assay [12] and in assay [13] was > 100 µM (inactive) in each case. The GI50 in [14], in assay [15], in assay [20], in assay [16], in [17] and in assay [18] was > 100 µM (inactive) in each case. Moreover, the GI50 in assay [19] was > 100 µM (inactive).
In the case of `O=C(NC(=S)Nc1ccc([N+](=O)[O-])cc1)c1ccc2c(c1)Sc1ccccc1O2`, the GI50 in assay [1] was > 100 µM (inactive); in assay [2], greater than 100 µM; in [3], 32.8 µM (inactive); in assay [4], 98.2 µM (inactive); in assay [5], > 100 µM (inactive); in assay [6], > 100 µM (inactive). The GI50 in [7], in [8], in assay [9], in [10], in assay [11] and in [12] was > 100 µM (inactive) in each case. Besides, the GI50 was 89.1 µM (inactive) in [14]; > 100 µM (inactive) in assay [15]; 77.1 µM (inactive) in assay [20]; > 100 µM (inactive) in assay [16]; > 100 µM (inactive) in [17]; 44.2 µM (inactive) in assay [18]. Besides, the GI50 in [19] is > 100 µM (inactive).
In the case of `C[C@@H]1CCC2[C@@H](C)C(=O)O[C@@H]3C4C[C@@H]1[C@@]23OO[C@@]4(C)O` (stereo partly specified), the GI50 in assay [1] was > 100 µM (inactive); in [2], greater than 100 µM; in [3], > 100 µM (inactive); in assay [4], 19.7 µM (inactive); in [5] it was 23.1 µM (inactive); in assay [6] it was > 100 µM (inactive). For the same compound, the GI50 in [7] was 62.8 µM (inactive); in [8], > 100 µM (inactive); in assay [9] it was 55.3 µM (inactive); in [10], 72.1 µM (inactive); in [11] it was > 100 µM (inactive); in assay [12], > 100 µM (inactive). Besides, the GI50 in assay [13], in assay [14], in assay [15], in assay [16], in [17] and in assay [18] was > 100 µM (inactive) in each case. Moreover, the GI50 in assay [19] is > 100 µM (inactive).
In the case of `N#Cc1c(-c2ccccc2)[nH]c2ccccc2c1=O`, the GI50 in [1] is > 100 µM (inactive); in [2], 62.8 µM; in assay [3] it was 19.2 µM (inactive); in [4] it was 23.9 µM (inactive); in assay [5], > 100 µM (inactive); in [6], > 100 µM (inactive). In addition, the GI50 is 67 µM (inactive) in [7]; 26.2 µM (inactive) in assay [8]; 33.4 µM (inactive) in [9]; > 100 µM (inactive) in assay [10]; 83.6 µM (inactive) in assay [11]; > 100 µM (inactive) in assay [12]. Further, the GI50 in [14] was 21.8 µM (inactive); in assay [15], > 100 µM (inactive); in assay [20], 26.2 µM (inactive); in [16], 95.7 µM (inactive); in [17] it was > 100 µM (inactive); in assay [18], 32.8 µM (inactive). In addition, the GI50 in assay [19] was > 100 µM (inactive).
